In one test the test system is HCT116 cells. As to the kind of experiment: 96-well XTT cell survival assay (AurA XTT). The format is cell-based. Particulars: Homo sapiens, HCT-116, 72 hours. How it is done: HCT116 cells were maintained in McCoy's 5a Medium supplemented with 10% fetal bovine serum (FBS) 2 mM L-Glutamine and 100 units penicillin/100 μg streptomycin, at 37° C. in 5% CO2
Compounds were tested in the following assays in duplicate.
96-well XTT assay: Cells were grown in growth media containing various concentrations of compounds (duplicates) on a 96-well flat bottom plate for 72 hours at 37° C. in 5% CO2. The starting cell number was 5000 cells per well and volume was 120 μl. At the end of the 72-hour incubation, 40 μl of XTT labeling mixture (50:1 solution of sodium 3′-[1-(phenylaminocarbonyl)-3,4-tetrazolium]-bis(4-methoxy-6-nitro) benzene sulfonic acid hydrate and Electron-coupling reagent: PMS (N-methyl dibenzopyrazine methyl sulfate) were added to each well of the plate. After an additional 2-6 hours […] with a spectrophotometer.
For orientation: Tetrazolium dyes change colour on reduction, which living cells bring about.

For test [1], the target named is T1, Autophosphorylated AurA kinase (Homo sapiens, UniProt O14965).
T1 construct: made in house; host or cells: Sf9 insect cells
T1 sequence (O14965 1-403): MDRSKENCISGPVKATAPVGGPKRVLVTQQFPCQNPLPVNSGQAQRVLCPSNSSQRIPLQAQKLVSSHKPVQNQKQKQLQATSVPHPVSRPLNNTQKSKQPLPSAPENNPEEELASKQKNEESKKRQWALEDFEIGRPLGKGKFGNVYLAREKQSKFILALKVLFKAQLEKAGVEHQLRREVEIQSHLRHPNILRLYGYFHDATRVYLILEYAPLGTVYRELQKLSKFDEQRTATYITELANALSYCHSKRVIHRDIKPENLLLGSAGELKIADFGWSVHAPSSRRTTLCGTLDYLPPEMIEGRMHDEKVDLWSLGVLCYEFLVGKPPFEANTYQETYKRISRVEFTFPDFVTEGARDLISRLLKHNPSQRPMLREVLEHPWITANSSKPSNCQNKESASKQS
Kind of test: AurA Luminescence-Based ATP Depletion Enzyme Assay. It counts as biochemical. Particulars: 10 μM ATP. The method, then: AurA Luminescence-Based ATP Depletion Enzyme Assay
Materials: Kemptide peptide substrate=LRRASLG (Biopeptide, San Diego, Calif.), ATP (Sigma Cat#A-3377, FW=551), HEPES buffer, pH 7.5, 10% Brij 35 (Calbiochem Cat#203728), MgCl2, Staurosporine (Streptomyces sp. Sigma Cat#85660-1MG), white Costar 384-well flat-bottom plate (VWR Cat#29444-088), Autophosphorylated AurA kinase (see below), Kinase-Glo™ (Promega Cat#V6712).
Stock Solutions: 10 mM Kemptide peptide (7.72 mg/ml in water), stored at −20° C.; 100 mM HEPES buffer+0.015% Brij 35, pH 7.5 (5 ml 1M HEPES stock+75 μL 10% Brij 35+45 ml miliQH2O); 10 mM ATP (5.51 mg/ml in dH2O) stored at −20° C. (diluted 50 μl into total of 10 ml miliQH2O daily=50 μM ATP working stock); 100 mM MgCl2; 200 μM Staurosporine, 2× Kinase-Glo™ reagent (made fresh or stored at −20° C.).
AurA Autophosphorylation Reaction: ATP and MgCl2 were added to 1-5 mg/ml AurA at final concentrations of 10 mM and 100 mM, respectively. The autophosphorylation reaction was incubated at 21° C. for 2-3 h. The reaction was stopped by the addition of EDTA to a final concentration of 50 mM, and samples were flash frozen with liquid N2 and stored at −80° C.
Standard Assay Setup for 384-well format (20 μl kinase reaction, 40 μl detection reaction): 10 mM MgCl2; 0.2 mM Kemptide peptide; 1 μl test compound (in DMSO); 0.3 μg/ml Autophosphorylated AurA kinase; 10 μM ATP; 100 mM HEPES+0.015% Brij buffer. Positive controls contained DMSO with no test compound. Negative controls contained 5 μM staurosporine. The kinase reactions were initiated at time t=0 by the addition of ATP. Kinase reactions were incubated at 21° C. for 45 min, then 20 μl of Kinase-Glo™ reagent were added to each well to quench the kinase reaction and initiate the luminescence reaction. After a 20 min incubation at 21° C., the luminescence was detected in a plate-reading luminometer.
The Sf9 insect cell pellets (˜18 g) produced from 6 L of cultured cells expressing human Aurora-2 were resuspended in 50 mM Na Phosphate pH 8.0, 500 mM NaCl, 10% glycerol, 0.2% n-octyl-β-D-glucopyranoside (BOG) and 3 mM β-Mercaptoethanol (BME). One tablet of Roche Complete, EDTA-free protease inhibitor cocktail (Cat#1873580) and 85 units Benzonase (Novagen Cat#70746-3)) were added per 1 L of original culture. Pellets were resuspended in approximately 50 ml per 1 L of original culture and were then sonicated on ice with two 30-45 sec bursts (100% duty cycle). Debris was removed by centrifugation and the supernatant was passed through a 0.8 μm syringe filter before being loaded onto a 5 ml Ni^2+ HiTrap column (Pharmacia). The column was washed with 6 column volumes of 50 mM Na Phosphate pH 8.0, 500 mM NaCl, 10% glycerol, 3 mM BME. The protein was eluted using a linear gradient of the same buffer containing 500 mM Imidazole. The eluant (24 ml) was cleaved overnight at 4° C. in a buffer containing 50 mM Na Phosphate pH 8.0, 500 mM NaCl, 10% glycerol, 3 mM BME and 10,000 units of TEV (Invitrogen Cat#10127-017). The protein was passed over a second nickel affinity column as described above; the flow-through was collected. The cleaved protein fractions were combined and concentrated using spin concentrators. Further purification was done by gel filtration chromatography on a S75 sizing column in 50 mM Na Phosphate (pH 8.0), 250 mM NaCl, 1 mM EDTA, 0.1 mM AMP-PNP or ATP buffer, and 5 mM DTT. The cleanest fractions were combined and concentrated to approximately 8-11 mg/ml, and were either flash frozen in liquid nitrogen in 120 μl aliquots and stored at −80° C., or stored at 4° C.

Take `C[C@@H](NC(=O)c1ccc(-c2ccnc(Nc3cccc(CN4CCN(CCO)CC4)c3)n2)s1)c1ccccc1`: the IC50 (commonly the point on the concentration scale where inhibition reaches its midpoint) with HCT116 cells is below 1000 nM; in test [1], below 100 nM.
With `O=C(NCc1ccccc1)c1ccc(-c2ccnc(Nc3ccc(CCO)cc3)n2)s1`, the IC50 in the test on HCT116 cells was 1000 to 5000 nM; in test [1] it was below 100 nM.
For `CCN(CCC#N)S(=O)(=O)c1ccc(-c2ccnc(Nc3cccc(C(C)O)c3)n2)s1` (stereo not shown), the half-inhibitory concentration (IC50) with HCT116 cells is 1000 to 5000 nM; in test [1], below 100 nM.
In test [1], `CN(C)C(=O)c1cccc(Nc2nccc(-c3ccc(Br)s3)n2)c1` showed an IC50 of 100 to 500 nM.
Regarding `CC(O)c1cccc(Nc2nccc(-c3ccc(S(=O)(=O)N(C)C)s3)n2)c1` (stereo not shown), the IC50 with HCT116 cells is 1000 to 5000 nM; in test [1], below 100 nM.
As to `CC(O)c1cccc(Nc2nccc(-c3ccc(-c4ccncc4)s3)n2)c1` (stereo not shown), in test [1], the half-inhibitory concentration (IC50) is above 500 nM.
With `CCN(CCC#N)S(=O)(=O)c1ccc(-c2ccnc(Nc3cccc(C)c3)n2)s1`, the IC50 with HCT116 cells is 1000 to 5000 nM; in test [1], below 100 nM.
The corresponding values for `C[C@@H](NC(=O)c1ccc(-c2ccnc(Nc3cccc(CN4CCC(O)CC4)c3)n2)s1)c1ccccc1` are below 1000 nM and below 100 nM.
On to `CCN(CCC#N)C(=O)c1ccc(-c2ccnc(Nc3cccc(C(C)O)c3)n2)s1` (stereo not shown), for which the IC50 in the test on HCT116 cells was below 1000 nM; in test [1], 100 to 500 nM.
`CC(O)c1cccc(Nc2nccc(-c3ccc(-c4cccc(CC#N)c4)s3)n2)c1` (stereo not shown): the IC50 in test [1] lay in the range of 100 to 500 nM.
For the compound `CCC(=O)Nc1ccc(-c2ccnc(Nc3cccc(C)c3)n2)s1`, the IC50 was 1000 to 5000 nM with HCT116 cells and 100 to 500 nM in test [1].
With `CN(Cc1ccccc1)C(=O)c1ccc(-c2ccnc(Nc3ccc(CCO)cc3)n2)s1`, the IC50 was 1000 to 5000 nM in the test with HCT116 cells and below 100 nM in test [1].
For the compound `Brc1ccc(-c2ccnc(Nc3cccc(CN4CCOCC4)c3)n2)s1`, in test [1], the half-maximal inhibitory concentration (IC50) is above 500 nM.
In the case of `CCC1CCCCN1S(=O)(=O)c1ccc(-c2ccnc(Nc3cccc(C(C)O)c3)n2)s1` (stereo not shown), the 50% inhibitory concentration (IC50) in test [1] lay within 100 to 500 nM.
Consider `CN(C)C1CCN(c2cccc(Nc3nccc(-c4ccc(C(=O)NCc5ccco5)s4)n3)c2)C1` (stereo not shown), for which the IC50 in test [1] was 100 to 500 nM.
As for `COc1ccc(Nc2nccc(-c3ccc(Br)s3)n2)cc1OC`, the IC50 in test [1] is below 100 nM.
Regarding `COc1ccc(Nc2nccc(-c3ccc(Br)s3)n2)cc1C(=O)N(C)C`, the IC50 with HCT116 cells fell in the range of 1000 to 5000 nM; in test [1], 100 to 500 nM.
In the case of `O=C(c1cccc(Nc2nccc(-c3ccc(Br)s3)n2)c1)N1CCN(CCO)CC1`, the IC50 with HCT116 cells lay within 1000 to 5000 nM; in test [1], 100 to 500 nM.
`OC1CCN(Cc2cccc(Nc3nccc(-c4ccc(CNc5ccccc5Cl)s4)n3)c2)CC1` registered an IC50 in test [1] above 500 nM.
Compound `CC(O)c1cccc(Nc2nccc(-c3ccc(S(=O)(=O)Cc4ccccc4)s3)n2)c1` (stereo not shown) returned an IC50 in test [1] of 100 to 500 nM.
Regarding `CC(O)c1cccc(Nc2nccc(-c3ccc(-c4cccnc4)s3)n2)c1` (stereo not shown), the IC50 with HCT116 cells is 1000 to 5000 nM; in test [1], 100 to 500 nM.
As to `CNC(=O)c1ccc(-c2ccc(-c3ccnc(Nc4cccc(C(C)O)c4)n3)s2)cc1` (stereo not shown), the IC50 in test [1] was in the range of 100 to 500 nM.

For the origin of these results see US7977481B2, “Pyrimidinyl-thiophene kinase modulators” (SGX Pharmaceuticals, Inc., priority 2005, dated 2011).
